In patent US20210252015A1, “CERTAIN (2S)-N-[(1S)-1-CYANO-2-PHENYLETHYL]-1,4-OXAZEPANE-2-CARBOXAMIDES FOR TREATING INFLAMMATORY BOWEL DISEASE” (Insmed Incorporated, priority 2018, published 2021):

What was measured:
[1] = system: DSS-induced colitis in C57BL/6 mice; assay: DSS-induced colitis murine study, Example 1B (endoscopy, stool consistency, body weight); type: in vivo
From the text: Mice: Ninety-five (95) male C57BL/6 mice with an average starting body weight (SEM) of 20.6 g (+0.16 g) were obtained from Charles River Laboratories (Wilmington, Mass.). Animals were acclimatized prior to the study. During this period, the animals were observed daily in order to reject any that presented in poor condition. Animals were fed with 5053 sterile rodent diet and water was provided ad libitum.
Solutions: The INS1007 Solution, Anti-p40 mAb solution and DSS Induction Solution were prepared and stored as described in Example 1A. […]
All animals were weighed daily and assessed visually for the presence of diarrhea and/or bloody stool at the time of dosing. […] Colitis severity was scored using the scale described in Example 1A. Stool consistency was scored during endoscopy using the parameters defined in Table 2. […]
Animals underwent endoscopy on Days 10 and 14, in order to assess colonic inflammation. Colitis was scored visually on a five-point scale using the method described in Example 1A. Stool consistency was scored visually on a five-point scale using the method described in Example 1A. […]
To determine the statistical significance of overall differences in mean percent body weight change between groups, the area under the curve (AUC) was calculated using the trapezoidal rule transformation and is shown in the FIG. 9.

[2] = system: DSS-induced colitis in C57BL/6 mice; assay: DSS-induced colitis model, mean over animals of Examples 1A and 1B; type: in vivo; settings: vs vehicle control
Procedure: Mean Endoscopy/Stool Consistency Scores and Mean Weight Change: The mean of the endoscopy and stool consistency scores from Days 10 and 14 observed from Examples 1A and 1B was determined to provide a mean endoscopy score and mean stool consistency score for Days 10 and 14 in the DSS-induced colitis model (i.e., mean that includes the animals from Examples 1A and 1B). FIGS. 11A and 12A show the Mean Endoscopy score. FIGS. 11B and 12B show the Mean Stool Consistency score.
The percent change in body weight on Day 14 from Examples 1A and 1B were averaged to provide mean percent body weight change for Day 14 in the DSS-induced colitis model (i.e., mean that includes the animals from Examples 1A and 1B).

**Q.** Which mean endoscopy score ([1]; Day 14, INS1007 0.3 mg/kg PO BID (Group 3), vs vehicle control (Group 2)) does the source give for `Cn1c(=O)oc2ccc(-c3ccc(C[C@@H](C#N)NC(=O)[C@@H]4CNCCCO4)cc3)cc21` [INS1007, (2S)—N-{(1S)-1-cyano-2-[4-(3-methyl-2-oxo-2,3-dihydro-1,3-benzoxazol-5-yl)phenyl]ethyl}-1,4-oxazepane-2-carboxamide] here?
**A.** reduced

**Q.** What about the “body weight loss (AUC, calculated based on Day -7)” value ([1]; INS1007 1 mg/kg PO BID (Group 4), vs Group 2 (3% DSS+vehicle)) of the same molecule?
**A.** significantly decreased

**Q.** And the “mean endoscopy score (Examples 1A and 1B)” value ([2]; Day 10, 0.3 mg/kg)?
**A.** significantly reduced

**Q.** And the “mean stool consistency score (Examples 1A and 1B)” value ([2]; Day 10, 0.3 mg/kg)?
**A.** significantly reduced

**Q.** What about the “mean endoscopy score (Examples 1A and 1B)” value ([2]; Day 10, 3 mg/kg) of the same molecule?
**A.** significantly reduced

**Q.** And the “average mean endoscopy score (Examples 1A and 1B)” value ([2]; Day 14, 0.3 mg/kg)?
**A.** significantly reduced

**Q.** And the “average mean weight change (percent body weight change, Examples 1A and 1B)” value ([2]; Day 14, 0.3 mg/kg, lost less weight)?
**A.** significantly reduced

**Q.** What about the “stool consistency score (Examples 1A and 1B)” value ([2]; Day 14, 3 mg/kg) of the same molecule?
**A.** significantly reduced
